Experimental data reported in ChEMBL document CHEMBL1145167, “Design and synthesis of 4-(alpha-hydroxymalonyl)phenylalanine as a new phosphotyrosyl mimetic and its use in growth factor receptor bound 2 src-homology 2 (Grb2 SH2) domain-binding peptides” (J Med Chem, 2005).

The compounds below were run against T1, Growth factor receptor-bound protein 2 (Homo sapiens, UniProt P62993) (assay: Steady-state affinity constant for Grb2 SH2 domain binding by surface plasmon resonance).

SMILES	Keq
NC(=O)C[C@H](NC(=O)C1(NC(=O)[C@H](Cc2ccc(CC(=O)O)cc2)NC(=O)C(=O)O)CCCCC1)C(=O)NCCCc1cccc2ccccc12	6.11 µM
NC(=O)C[C@H](NC(=O)C1(NC(=O)[C@H](Cc2ccc(C(O)(C(=O)O)C(=O)O)cc2)NC(=O)C(=O)O)CCCCC1)C(=O)NCCCc1cccc2ccccc12	0.27 µM
CC(=O)N[C@@H](Cc1ccc(OP(=O)(O)O)cc1)C(=O)NC1(C(=O)N[C@@H](CC(N)=O)C(=O)NCCCc2cccc3ccccc23)CCCCC1	0.24 µM

More lines, now with the values ahead:

Keq	SMILES
0.149 µM	NC(=O)C[C@H](NC(=O)C1(NC(=O)[C@H](Cc2ccc(C(C(=O)O)C(=O)O)cc2)NC(=O)C(=O)O)CCCCC1)C(=O)NCCCc1cccc2ccccc12
1.54 µM	NC(=O)C[C@H](NC(=O)C1(NC(=O)[C@H](Cc2ccc(C(O)C(=O)O)cc2)NC(=O)C(=O)O)CCCCC1)C(=O)NCCCc1cccc2ccccc12 (stereo partly specified)

The compounds below were run against T1, Growth factor receptor-bound protein 2 (assay: Inhibition of Grb2 SH2 domain binding in ELISA).

IC50	SMILES
47 nM	CC(=O)N[C@@H](Cc1ccc(OP(=O)(O)O)cc1)C(=O)NC1(C(=O)N[C@@H](CC(N)=O)C(=O)NCCCc2cccc3ccccc23)CCCCC1
